Legend:
Type in all cases: cell-based, human
[1] = test system: hiPSC cell-derived floor plate organoids (hFpO); assay: Quantification of FOXA2 positive floor plate cells by immunofluorescence microscopy; conditions: hFpO induced with 5 μM SAG day 1 to day 6 plus dual SMAD inhibitors, EGF, FGF2, RA; controls without SAG showed no induction
Protocol: For the generation of 3D floor plate organoids, hiPSC cells were incubated with Accutase® (Innovative Cell Technologies, AT104) at 37° C. for 7 min and dissociated into single cells. To obtain uniformly sized organoids, AggreWell-800 (STEMCELL Technologies, 34815) containing 300 microwells was used. Approximately 3×10^6 single cells were added per AggreWell-800 well in Essential 8 medium supplemented with the ROCK inhibitor Y27632 (10 mM, Selleckchem, S1049), centrifuged at 100 g for 3 min to capture the cells in the microwells, and incubated at 37° C. with 5% CO2. After 24 h, organoids consisting of approximately 10,000 cells were collected from each microwell by pipetting medium in the well up and down with a cut P1000 pipet tip and transferred into ultra-low attachment plastic dishes (Corning, 3262) in 20% knockout serum medium (KOSR) supplemented with two SMAD pathway inhibitors dorsomorphin (2.5 mM, Sigma-Aldrich, P5499) and SB-431542 (10 mM, R&D Systems, 1614) for the first 5 days.
For floor plate induction: SAG, FGF2, and retinoic acid was added to the medium starting on day 1 and CHIR was added to the media beginning on day 2 until day 7. The 20% KOSR medium was changed every day and supplemented with the respective small molecules and growth factors (FIG. 1). […]

[2] = test system: hFpO-hNtO midline assembloids; assay: hFpO-induced ventralization of hNtO in midline assembloids (immunofluorescence staining)
Protocol: Cryoprotection and immunofluorescence staining. hFpO, hNtO and midline assembloids were fixed in 4% paraformaldehyde (PFA)/phosphate buffered saline (PBS) for 1-2 hours on a rocker at 4° C. They were then washed in PBS and transferred to 30% sucrose/PBS overnight until the organoids/assembloids sink in the solution. Subsequently, they were rinsed in optimal cutting temperature (OCT) compound (Tissue-Tek OCT Compound 4583, Sakura Finetek) and embedded. For immunofluorescence staining, 20 μm-thick sections were cut using a Leica Cryostat (Leica, CM1850). Cryosections were blocked in 0.3% Triton X-100 (Millipore Sigma, T9284-100ML), 1% BSA diluted in PBS for 1 h at room temperature. The sections were then incubated overnight at 4° C. with primary antibodies diluted in PBS containing 1% BSA, 0.1% Triton X-100. Samples were then rinsed 3× and incubated for 30 minutes in 1% BSA, 0.1% Triton X-100. Cryosections were then incubated with secondary antibodies in block 1 h. The following primary antibodies were used for staining: anti-FOXA2 (rabbit, Abcam), anti-NKX2.2 (mouse, DSHB, sc-517261), anti-NKX6.1 (mouse, DSHB), LMX1A (rabbit, HPA030088, Atlas antibodies), TFAP2A. Alexa Fluor dyes (Life Technologies) were used at 1:1000 dilution, and nuclei were visualized with Hoechst 33258 (Life Technologies, H3549). Cryosections were mounted for microscopy on glass slides using Aquamount (Polysciences, 18606), and imaged on a Zeiss M1 Axioscope or EVOS microscope. Images were processed in Fiji (NIH).
Generation of neural tube organoids or organoids (hNtO) and midline assembloids (hNtO-hFpO). To generate hNtO, organoids were generated using the Aggrewell method previously described. The 20% KOSR medium was changed every day and supplemented with dorsomorphin and SB-431542 for 5 Days. On day 6 in suspension, the organoids were transferred to 20% KOSR supplemented with EGF, FGF2, CHIR and retinoic acid. On day 7, hNtO were dissociated and seeded as previously described in ultra-low attachment 96 well plates. […]

[3] = test system: dorsal interneuron axon extension in dhSpOs; assay: Axon extension response of dhSpO dorsal interneurons to purified FP-secreted proteins; conditions: for sensitivity to repulsive axon guidance cue / chemorepulsion: ROBO3 KO neurites
Protocol: Differentiation of dorsal human spinal organoids (hSpO) and midline assembloids (dhSpO-hFpO-dhSpO) to study crossing of commissural projections. Aggregates of hiPSC cells were generated and collected as previously described in hFpO and hNtO protocols and transferred to poly-HEMA coated 10 cm dishes in Essential 6 medium (Thermo Fisher Scientific, A1516401) supplemented with two SMAD pathway inhibitors-dorsomorphin (2.5 mM, Sigma-Aldrich, P5499) and SB-431542 (10 mM, R&D Systems, 1614). For the first 5 d, Essential 6 medium was changed every day and supplemented with dorsomorphin and SB-431542. To generate hSpO, on day 6 in suspension the organoids were transferred to neural medium containing Neurobasal™-A Medium (Thermo Fisher Scientific, 10888022), B-27™ Supplement, minus vitamin A (Thermo Fisher Scientific, 12587010), GlutaMAX™ Supplement (1:100, Thermo Fisher Scientific, 35050079), Penicillin-Streptomycin (1:100, Thermo Fisher Scientific, 15070063), and supplemented with EGF, CHIR and RA. From day 19, to promote differentiation of the neural progenitors into neurons, the neural medium was supplemented with brain-derived neurotrophic factor (BDNF; 20 ng/ml, PeproTech, 450-02), IGF, AA, and 5′-cyclic monophosphate sodium salt (cAMP; 100 mM, Millipore Sigma, D0627). From this point on medium was changed every other day.
To validate the functionality of floor plate mechanisms that coordinate midline crossing, =isogenic KO hiPS cell lines targeting ROBO3 (an essential gene for midline crossing) with the CRISPR/Cas9 system were generated. Three sgRNAs targeting an early exon of a specific gene were designed and synthesized by Synthego to induce one deletion. Human iPSCs were dissociated with accutase and 0.5 million cells were mixed with 300 pmol sgRNAs and 40 pmol Cas9 protein (Synthego, SpCas9 2NLS Nuclease ([…])). Nucleofection was performed using the P3 Primary Cell 4D-NucleofectorTMX Kit L (Lonza, V4XP-3032), a 4D-nucleofector core unit and the X unit (Lonza) (program CA-137). […]

[4] = cyclopamine added the same day of fusion and in subsequent feeds, hFpO-hNtO assembloid

CNC1CCC(N(Cc2cccc(-c3ccncc3)c2)C(=O)c2sc3ccccc3c2Cl)CC1 (stereo not shown) [SAG]
percent of positive floor plate cells (FOXA2 marker) [1]: 90-99%

CC1=C2C[C@H]3[C@@H](CC=C4C[C@@H](O)CC[C@@]43C)[C@@H]2CC[C@]12O[C@@H]1C[C@H](C)CN[C@H]1[C@H]2C [cyclopamine]
FOXA2 expression in hFpO [2, 4]: abolished | NKX2.2 induction in hNtO [2, 4]: abolished | hFpO induced ventralization (NKX2.2, FOXA2, NKX6.1) ([2]; in the presence of cyclopamine, FIG. 5E-G): completely abolished

B1: SLIT-2: repulsive axon guidance cue, purified FP-secreted protein (protein, UniProt O94813 31-1529, looked up)
Slit homolog 2 protein: QCSCSGSTVDCHGLALRSVPRNIPRNTERLDLNGNNITRITKTDFAGLRHLRVLQLMENKISTIERGAFQDLKELERLRLNRNHLQLFPELLFLGTAKLYRLDLSENQIQAIPRKAFRGAVDIKNLQLDYNQISCIEDGAFRALRDLEVLTLNNNNITRLSVASFNHMPKLRTFRLHSNNLYCDCHLAWLSDWLRQRPRVGLYTQCMGPSHLRGHNVAEVQKREFVCSGHQSFMAPSCSVLHCPAACTCSNNIVDCRGKGLTEIPTNLPETITEIRLEQNTIKVIPPGAFSPYKKLRRIDLSNNQISELAPDAFQGLRSLNSLVLYGNKITELPKSLFEGLFSLQLLLLNANKINCLRVDAFQDLHNLNLLSLYDNKLQTIAKGTFSPLRAIQTMHLAQNPFICDCHLKWLADYLHTNPIETSGARCTSPRRLANKRIGQIKSKKFRCSAKEQYFIPGTEDYRSKLSGDCFADLACPEKCRCEGTTVDCSNQKLNKIPEHIPQYTAELRLNNNEFTVLEATGIFKKLPQLRKINFSNNKITDIEEGAFEGASGVNEILLTSNRLENVQHKMFKGLESLKTLMLRSNRITCVGNDSFIGLSSVRLLSLYDNQITTVAPGAFDTLHSLSTLNLLANPFNCNCYLAWLGEWLRKKRIVTGNPRCQKPYFLKEIPIQDVAIQDFTCDDGNDDNSCSPLSRCPTECTCLDTVVRCSNKGLKVLPKGIPRDVTELYLDGNQFTLVPKELSNYKHLTLIDLSNNRISTLSNQSFSNMTQLLTLILSYNRLRCIPPRTFDGLKSLRLLSLHGNDISVVPEGAFNDLSALSHLAIGANPLYCDCNMQWLSDWVKSEYKEPGIARCAGPGEMADKLLLTTPSKKFTCQGPVDVNILAKCNPCLSNPCKNDGTCNSDPVDFYRCTCPYGFKGQDCDVPIHACISNPCKHGGTCHLKEGEEDGFWCICADGFEGENCEVNVDDCEDNDCENNSTCVDGINNYTCLCPPEYTGELCEEKLDFCAQDLNPCQHDSKCILTPKGFKCDCTPGYVGEHCDIDFDDCQDNKCKNGAHCTDAVNGYTCICPEGYSGLFCEFSPPMVLPRTSPCDNFDCQNGAQCIVRINEPICQCLPGYQGEKCEKLVSVNFINKESYLQIPSAKVRPQTNITLQIATDEDSGILLYKGDKDHIAVELYRGRVRASYDTGSHPASAIYSVETINDGNFHIVELLALDQSLSLSVDGGNPKIITNLSKQSTLNFDSPLYVGGMPGKSNVASLRQAPGQNGTSFHGCIRNLYINSELQDFQKVPMQTGILPGCEPCHKKVCAHGTCQPSSQAGFTCECQEGWMGPLCDQRTNDPCLGNKCVHGTCLPINAFSYSCKCLEGHGGVLCDEEEDLFNPCQAIKCKHGKCRLSGLGQPYCECSSGYTGDSCDREISCRGERIRDYYQKQQGYAACQTTKKVSRLECRGGCAGGQCCGPLRSKRRKYSFECTDGSSFVDEVEKVVKCGCTRCVS
sensitivity to repulsive axon guidance cue / chemorepulsion [3]: increased sensitivity and chemorepulsion | sensitivity to repulsive axon guidance cue / chemorepulsion ([3]; listed as Slit-2): Increased sensitivity | sensitivity to repulsive axon guidance cue ([3]; wildtype dorsal interneurons): largely insensitive

Reference: US20250076286A1, “GENERATION OF NEURAL ORGANIZER ORGANOIDS AND MIDLINE ASSEMBLOIDS FROM HUMAN PLURIPOTENT STEM CELLS” (The Board of Trustees of the Leland Stanford Junior …, priority 2022, published 2025)
